Experimental data reported in article PMC9574886 (Bioorganic & medicinal chemistry, 2022).
Where a name gives a salt, the structure may show the parent alone.

How the values were obtained:
purified rat nNOS = purified rat nNOS (Rattus norvegicus, UniProt P29476); test: NO-hemoglobin; type: biochemical; conditions: for drop in potency with rnNOS relative to 12: compared with 12
[1] = PAMPA-BBB parallel artificial membrane permeability assay; type: in vitro ADME; conditions: 17 h, 200 μM, triplicate, in-house conditions
human eNOS = human eNOS (Homo sapiens, UniProt P29474); test: NO-hemoglobin; type: biochemical; conditions: hn/he compared to lead 9
human nNOS = human nNOS (Homo sapiens, UniProt P29475); test: NO-hemoglobin; type: biochemical; conditions: for drop in potency with hnNOS relative to 12: compared with 12

Row | SMILES | Determined Pe [1] | drop in potency with hnNOS relative to 12 (human nNOS) [fold] | further results
1 | CNCC#Cc1cc(C)cc(N)n1 [Compound 10, 4-methyl-6-(3-(methylamino)prop-1-yn-1-yl)pyridin-2-amine dihydrochloride] | – | – | drop in potency with rnNOS relative to 12 (purified rat nNOS): 3 fold
2 | Cc1cc(N)nc(CCCN(C)C)c1 [Compound 12, 6-(3-(dimethylamino)propyl)-4-methylpyridin-2-amine dihydrochloride] | 2.0 10^−6 cm s^−1 | – | drop in heNOS selectivity as compared to lead 9 (human eNOS): 8 fold
3 | Cc1cc(N)nc(C#CCN2CCN(C)CC2)c1 [Compound 13, 4-methyl-6-(3-(4-methylpiperazin-1-yl)prop-1-yn-1-yl)pyridin-2-amine dihydrochloride] | – | ~73 | –
4 | Cc1cc(N)nc(C#CCCN(C)C)c1 [Compound 15, 6-(4-(dimethylamino)but-1-yn-1-yl)-4-methylpyridin-2-amine dihydrochloride] | – | 11 | –
5 | Cc1cc(N)nc(CCCCN(C)C)c1 [Compound 16, 6-(4-(dimethylamino)butyl)-4-methylpyridin-2-amine dihydrochloride] | – | ~2 | –
6 | Cc1cc(N)nc(C#CCN2CC(F)(F)C2)c1 [Compound 17, 6-(3-(3,3-difluoroazetidin-1-yl)prop-1-yn-1-yl)-4-methylpyridin-2-amine dihydrochloride] | – | ~17 | better affinity than 19 with hnNOS (human nNOS; compared with 19): 3 fold; better affinity than 19 with rnNOS (purified rat nNOS; compared with 19): 3 fold
7 | Cc1cc(N)nc(C#CCN2CCC(F)(F)CC2)c1 [Compound 19, 6-(3-(4,4-difluoropiperidin-1-yl)prop-1-yn-1-yl)-4-methylpyridin-2-amine] | 21.1 10^−6 cm s^−1 | ~49 | drop in potency with rnNOS relative to 12 (purified rat nNOS): about 61 fold
8 | Cc1cc(N)nc(CCCN2CCC(F)(F)CC2)c1 [Compound 20, 6-(3-(4,4-difluoropiperidin-1-yl)propyl)-4-methylpyridin-2-amine dihydrochloride] | 17.3 10^−6 cm s^−1 | – | –
